Assay results reported in patent US11412735B2, “Pre-emergent herbicide” (W. Neudorff GMBH KG, priority 2016, dated 2022).

Assays:
Type in all cases: in vivo
dandelion seeds [1] = test: Greenhouse dandelion seed germination test, application on soil (Examples 1-3); conditions: soil pots; for Weed emergence suppression assay score: untreated = 0%
Description: (§1) The “weed emergence suppression assay” comprises:
(§2) applying an amount of a composition or the components thereof to a target area comprising pre-emergent undesired vegetation; and following application (e.g. after at least 7, 14 or 21 days from application) assessing emergence visually using a percentage rating scale from 100% (no undesired vegetation emergence) to 0% (complete undesired vegetation emergence=untreated control).
(§3) Dry FeHEDTA (micro-granular; Dissolvine H—Fe-13) was purchased from the company AkzoNobel. Corn gluten meal (Amaizeingly Green; N—P—K 10-0-0) and the mustard seed meal (Pescadero Gold; N—P—K 4.5-1.5-1.15) were purchased from AgGlobal (155, Gordon Baker Road, Suite 402,Toronto, ON M2H 3N7, Canada. www.buyagglobal.com) and Farm Fuel Inc (275 Coward Rd, Watsonville, Calif. 95076, USA. www.farmfuelinc.com), respectively. The corn gluten meal and mustard seed meal arrived in pellet form, but were ground and sieved through a mesh (sieve opening size 850 μm) before use to obtain a particle size of ≤850 μm. FeHEDTA (4.8%) was mixed with 1% of drying agent (MICRO-CEL® E) and then mixed with fertilizer seed meal (corn gluten meal or mustard seed meal) (94.2%) and blended thoroughly until the formulation became homogeneous. The application rate was 100 g/m^2 for the combined treatment (94.2 g/m^2 for FSM and 4.8 g/m^2 for FeHEDTA), 4.8 g/m^2 for FeHEDTA treatment and 100 g/m^2 for FSM treatment. In the formulation, the respective FSM was simply blended with transition metal chelate and with other ingredients if applicable. Samples were usually prepared within 48 hours of treatment. All tests were done in the greenhouse.
Pots 4″ in size were filled with wetted potting media and dandelion seeds were spread (0.2 g of seeds/four pots in examples 1 and 2 and 0.25 g/4 pots in example 3) evenly over each pot and lightly watered 3 hrs before treating. Seeded pots were covered with a thin layer of potting soil and treatments were applied after seeding (e.g. just after seeding). Each treatment consisted with 4 replicates. All treatments were lightly watered as needed until the seedlings emerged. Number of emerged seedlings in each pot was recorded 7 or 21 days after treatment application.

[2] = tested on: grass (lawn), perennial rye grass; test: Grass phytotoxicity / selective herbicide assay (Example 4)
Description: The “selective herbicide assay” comprises:
applying an amount of a composition (or the components thereof) to a target area comprising pre-emergent undesired vegetation and desired vegetation; and
following application (e.g. after at least 7, 14 or 21 days from application) assessing separately undesired vegetation emergence and desired vegetation survival visually using a percentage rating scale from 0% (no undesired vegetation emergence/no desired vegetation survival) to 100% (complete undesired vegetation emergence/complete desired vegetation survival).
as §3
(§4) Pots 4″ in size were filled with wetted potting media, grass (lawn) seeds (perennial rye grass) were spread until soil was completely covered with grass seeds (5 g/pot) and kept for 1 month until grass was grown. […] Number of emerged seedlings in each pot was recorded 14 days after application.

dandelion seeds [3] = test: Greenhouse dandelion seed germination (in grass) test (Example 4); conditions: dandelion seeded in grass pots
Description: as §1, §2
Dry FeHEDTA (micro-granular; Dissolvine H—Fe-13) was purchased from the company AkzoNobel. Corn gluten meal (Amaizeingly Green; N—P—K 10-0-0) and the mustard seed meal (Pescadero Gold; N—P—K 4.5-1.5-1.15) were purchased from AgGlobal (155, Gordon Baker Road, Suite 402,Toronto, ON M2H 3N7, Canada. www.buyagglobal.com) and Farm Fuel Inc (275 Coward Rd, Watsonville, Calif. 95076, USA. www.farmfuelinc.com), respectively. The corn gluten meal and mustard seed meal arrived in pellet form, but were ground and sieved through a mesh (sieve opening size 850 μm) before use to obtain a particle size of ≤850 μm. […]
as §4

O=C([O-])CN(CCO)CCN(CC(=O)[O-])CC(=O)[O-].[Fe+3] [Dry FeHEDTA (B), FeHEDTA]
Seedling emergence: No of seedlings (21 days after application) (dandelion seeds [1]; Example 1, 21 days after application, 100 g/m^2 combined or FSM, 4.8 g/m^2 FeHEDTA, untreated 42): 44 | Weed emergence suppression assay score (dandelion seeds [1]; Example 1, 21 days after application): −4.76% | Seedling emergence: No of seedlings (21 days after application) (dandelion seeds [1]; Example 2, 21 days after application, 100 g/m^2 combined or FSM, 4.8 g/m^2 FeHEDTA, untreated 60): 76 | Weed emergence suppression assay score (dandelion seeds [1]; Example 2, 21 days after application): −26.66% | Seedling emergence: No of seedlings 7 days after application (dandelion seeds [1]; Example 3, 7 days after application, 100 g/m^2 combined or FSM, 4.8 g/m^2 FeHEDTA, untreated 134): 59 | Weed emergence suppression assay score (dandelion seeds [1]; Example 3, 7 days after application): 55.07% | Selective herbicide assay score ([2]; score on desired vegetation (grass)): 0% | Grass phytotoxicty, 7 days after treatment ([2]; visual rating of grass damage, 7 days after treatment): 0 | Grass phytotoxicty, 14 days after treatment ([2]; visual rating of grass damage, 14 days after treatment): 0 | Weed emergence suppression assay score (dandelion seeds [3]; 14 days after application, untreated = 0%): 2.63% | Weed (dandelion) Seedling emergence: No of dandelion seedlings (14 days after application) (dandelion seeds [3]; untreated 76): 74
